The text below walks through data of patent US7786258B2, “Methods for inhibiting immune complex formation in a subject” (Trinity Therapeutics, Inc., priority 2004, dated 2010).

Read-outs that look alike come from different tables or passages of the source. Positions of bridges follow the written chain, without caps; N, C: chain ends. Residues, ends and D or L forms follow the SMILES beside them. No end group written: not given here.

The test system of one data set is whole human IgG4. Put plainly: Inhibition of Fc:Fc interactions: immune complexes on IgG4 coated microwells (Example 3). As to conditions: for OD 405 nm: IgG4 coated microwells, positive control (buffer) 0.716. The data set is classed as binding. The text has this:
Inhibition of Fc:Fc interactions: The Fc region of IgG4 interacts in an Fc to Fc fashion with immune complexed IgG. Purified IgG4 is used with polypeptides of the invention to examine inhibition of immune complex formation and Fc:Fc interactions. Chemical modification of His435, a critical IgG Fc amino acid bound by polypeptides of the invention, is known to inhibit Fc:Fc interactions.

Data set [1] concerns DBA/1J mice with collagen-induced arthritis.
A further data set deals with FcγIIa. The data set can be described thus: Inhibition of FcR binding: reverse ELISA, PAP immune complexes on FcγIIa coated plates (Example 3). As to conditions: plates read at 450 nm, (+) control PAP with no peptide 3.600. The method, then:
(§1) Inhibition of FcR binding: Once the reverse ELISA protocol was established using the C1q assay, the assay was redesigned using FcγIIa, FcγIIb and FcγIII in place of C1q. Highly purified FcγIIa, FcγIIb and FcγIII were immunoadsorbed onto plastic microwells. After optimizing the FcγR reverse ELISA system, simple competitive inhibition experiments using polypeptides of the invention were conducted to investigate their ability to inhibit binding of immune complexes to purified FcγR.
(§2) Falcon microtiter plates were coated with 1:10 dilutions of highly purified FcγIIa, FcγIIb and FcγIII and incubated for 24 hours. […] Equal amounts (50 μl) of peptide and 1:10 PAP immune complexes were pre-incubated for one hour and then incubated on the FcR coated plates for one hour. […] Stop solution (10 μl) was added and the plates were read at 450 nm.
(In an ELISA, binding on a coated surface is turned into a signal by an enzyme label.)

The test system of another data set is human monomeric IgG. The data set can be described thus: Inhibition of rheumatoid factor binding to monomeric IgG (Example 4). As to conditions: peptides pre-incubated 30 minutes with monomeric IgG, then 200 I.U. RF; (+) control buffer only 1.376. The method, then: The ability of the peptides to inhibit the binding of rheumatoid factor to monomeric IgG was tested. Binding to monomeric IgG may be important, as it may increase the half-life of particular peptides and allow them to be more bioactive.
A standard rheumatoid factor commercial test was used (Research Diagnostics) with the following modifications: 100 μl of test peptides were pre-incubated for 30 minutes with human monomeric IgG (Research Diagnostics). Plates were washed and incubated with 200 I.U. rheumatoid factor positive control supplied with the test kit. The rest of the test was performed according to the manufacturer's instructions.

The test system of a further data set is FcγIII. The data set can be described thus: Inhibition of FcR binding: reverse ELISA, PAP immune complexes on FcγIII coated plates (Example 3). As to conditions: plates read at 450 nm, (+) control PAP with no peptide 3.600. The method, then:
as §1, §2

The next data set concerns polyclonal IgM RF. Put plainly: Inhibition of RF binding: PAP immune complexes on rheumatoid factor coated plates (Example 3). As to conditions: for OD 405 nm: PAP pre-incubated 30 minutes with peptides or RF, (+) control PAP with no peptide 0.753; for inhibition of RF binding to immune complexes, in words: Table 3. The procedure:
Inhibition of RF binding: The assay to test inhibition of RF binding to the IgG Fc CH2-CH3 clefts was very similar to the C1q-CIC EIA assay described above, with the exception that polyclonal IgM RF was coated onto the microwells instead of C1q. […] High titer, RF positive sera were purchased from Research Diagnostics (Flanders, N.J.).
A 1:10 dilution of 200 μl of 200 I.U. rheumatoid factor (RF) (+) control (positive standard provided by Research Diagnostics was coated onto Falcon microtiter plates and incubated for 24 hours. The plates were blocked with 1:5 BSA blocking buffer (Alpha Diagnostic International) for one hour. Freshly prepared 1:10PAP (antigen:antibody) immune complexes were pre-incubated for 30 minutes with peptides or RF (positive control containing only buffer). After washing, plates were incubated with ABTS substrate (Research Diagnostics) for 30 minutes and then read at 405 nm. Results are shown in Table 3.

The subject of a further data set is histone. Put plainly: Inhibition of histone binding: PAP immune complexes on histone-coated plates (Example 3). Conditions: rabbit PAP pre-incubated with peptides or histone one hour; (+) control buffer only 1.268. The procedure: Inhibition of histone binding: The binding of immune complexes to the kidneys in lupus nephritis appears to involve (a) the binding of histones to the GBM, and then (b) the binding of immune complexes (through the IgG Fc CH2-CH3 cleft) to the bound histones. Experiments similar to those described above were used to inhibit binding of purified histone to IgG Fc binding. Histone (Sigma) was diluted 1:10 in coating buffer (Alpha Diagnostic International) and incubated on Falcon microtiter plates for 24 hours. Plates were blocked with 5× BSA blocking solution (Alpha Diagnostic International) for 24 hours. Freshly prepared 1:10 rabbit PAP (Sigma) was pre-incubated with either peptides or histone for one hour, and 100 μl of the mixture was added to the histone-coated plates for one hour. Plates were incubated with ABTS substrate (Quidel Corp.) for 45 minutes, and OD 405 was read.

In another data set the test system is FcγIIb. The data set can be described thus: Inhibition of FcR binding: reverse ELISA, PAP immune complexes on FcγIIb coated plates (Example 3). As to conditions: plates read at 450 nm, (+) control PAP with no peptide 3.600. The method, then: as §1, §2
In a further data set the test system is MBP. As to conditions: rabbit PAP pre-incubated with peptide or MBP 30 minutes; (+) control buffer only 1.033. The procedure:
Inhibition of MBP binding: MBP (Sigma) was diluted 1:10 with coating buffer (Alpha Diagnostic International) and incubated for 24 hours on Falcon microtiter plates. Plates were washed and then blocked with 5× BSA blocking buffer (Alpha Diagnostic International) for 24 hours. Rabbit 1:10 PAP immune complexes were pre-incubated with equal amounts of peptide or MBP for 30 minutes. One hundred μl of PAP immune complexes/peptide or PAP/MBP was then added to the MBP-coated plates and incubated for one hour. The plates were washed and incubated with TMB substrate (Alpha Diagnostic International) for 30 minutes. After adding stop solution (Alpha Diagnostic International), the plates were read at 450 nm.
Further experiments were conducted to determine the effect of SEQ ID NO:47 (also referred to as NB-406) on binding of MBP to IgG PAP immune complexes.

The next data set has as its system C1q. Put plainly: Inhibition of C1q binding: reverse ELISA, PAP immune complexes on C1q coated plates (Example 3). Conditions: for OD 405 nm: peptide or C1q pre-incubated with PAP 30 minutes, (+) control PAP with no peptide 0.467, lower OD = more inhibition. The arrangement: species or system human. The text has this:
For this reason, a “reverse ELISA” technique is used to assess binding of the Fc region to ligands that bind to immune complexed IgG Fc. In a reverse ELISA, the enzyme (e.g., HRP) is not covalently conjugated to the Fc portion of the secondary antibody. Rather, a preformed immune complex of peroxidase-rabbit (or mouse) anti-peroxidase IgG (“PAP” complex) is used. […] In the absence of competitor, PAP complexes bind to the immobilized ligand and the reaction between HRP and its substrate produces a signal. This signal is reduced by polypeptides and compounds of the invention that inhibit PAP binding to the immobilized ligand.
Inhibition of C1q binding: Twenty μl of peroxidase (P) (Sigma) was diluted in 2 ml of sample diluent (Quidel Corp, San Diego, Calif.). Twenty μl of anti-peroxidase (AP) (Sigma) was diluted in 2 ml of sample diluent, and 20 μl of the diluted AP was added to the diluted P (1:100 antigen:antibody ratio) to form peroxidase-anti-peroxidase (PAP) complexes. The extreme antigen excess guaranteed that any single antibody would be bound to two peroxidase molecules and larger immune complexes would not form, thus preventing the bridging of larger immune complexes to multimeric C1q (heximeric). One hundred μl of peptide or C1q was pre-incubated with freshly prepared PAP for 30 minutes, added to C1q coated plates (Quidel Corp.), and incubated for one hour. After washing, ABTS substrate (Quidel Corp.) was added to the plates and incubated for 30 minutes, and the plates were read at 405 nm. All peptides were cyclized by forming a disulfide bond between the two cysteine residues.

Setting [2] is: 10 mg/kg, versus diseased control.

Sequence of whole human IgG4 (P01861 99-327 isoform P01861-1 limits assumed): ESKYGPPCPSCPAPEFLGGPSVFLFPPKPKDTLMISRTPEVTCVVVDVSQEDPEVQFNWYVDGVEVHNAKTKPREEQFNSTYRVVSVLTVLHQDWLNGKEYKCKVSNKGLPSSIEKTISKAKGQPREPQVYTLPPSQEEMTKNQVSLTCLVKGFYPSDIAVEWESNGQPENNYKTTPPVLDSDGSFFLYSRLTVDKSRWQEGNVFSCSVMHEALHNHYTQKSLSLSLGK

As for “APPDCARHLGELVWCT (Synthetically generated polypeptide)”, in the data set on whole human IgG4, the “OD 405 nm” value was determined as 0.107.

In the case of “REMICADE: REMICADE® was obtained from Centocor (Malvern, Pa.)”, in data set [1] (10 mg/kg), the “effect on arthritic symptoms, in words” value was “no effect” and the “effect on histological symptoms of arthritis, in words” value is reported as “no effect”. Further, the “Arthritic Index” value in [1] (10 mg/kg subcutaneously daily, average over final three days of treatment, diseased control 3.8) was 3.8. Besides, the “Histological Evaluation” value in data set [1] (10 mg/kg, hindlimbs, day 48, diseased control 45) was found to be 45. Further, in [1] (setting [2]), the “Arthritic Index Percent Change” value is on record as 0% and the “Histological Evaluation Percent Change” value amounted to 0%. The “adverse reactions at injection sites” value in data set [1] (mouse, in vivo, sc) is recorded as “no adverse reactions were observed”.

For the molecule `CC(C)C[C@@H]1NC(=O)[C@H](Cc2c[nH]cn2)NC(=O)[C@H](Cc2c[nH]c3ccccc23)NC(=O)[C@H](C)NC(=O)[C@@H](NC(=O)[C@@H](N)CC(=O)O)CSSC[C@@H](C(=O)N[C@H](C(=O)O)[C@@H](C)O)NC(=O)[C@H](Cc2c[nH]c3ccccc23)NC(=O)[C@H](C(C)C)NC(=O)[C@H](CC(C)C)NC(=O)[C@H](CCC(=O)O)NC(=O)CNC1=O`, the “adverse reactions at injection sites” value in data set [1] (daily subcutaneous injections day 32 to day 47, all doses, injection sites examined daily) is reported as “no adverse reactions were observed”. Besides, in [1] (mouse, in vivo), the “maximum inhibition of arthritic symptoms” value was 37%.

For “DCAWHLGELAACT (disulfide 2-12 (inferred))”, the “PAP immune complex binding (OD at 450 nm)” value in the data set with FcγIIa came out at 1.484. Besides, the “OD 405 nm” value in the data set with human monomeric IgG turned out to be 1.397; with polyclonal IgM RF, 0.622; with whole human IgG4, 0.557; with histone, 0.729; with MBP it was 0.706. Also, the “OD 450 nm (PAP immune complex binding)” value with FcγIII is recorded as 1.345. Further, in the data set on FcγIIb, the “OD at 450 nm (PAP binding to FcγIIb)” value is recorded as 1.067.

In the case of “DCAAHLGELAACT (disulfide 2-12 (inferred))”, the “PAP immune complex binding (OD at 450 nm)” value in the data set with FcγIIa is reported as 2.434. Moreover, the “OD 405 nm” value in the data set with human monomeric IgG came to 1.421; in the data set with C1q, 0.458. Further, the “OD 450 nm (PAP immune complex binding)” value in the data set on FcγIII is given as 2.413. In addition, the “OD at 450 nm (PAP binding to FcγIIb)” value with FcγIIb is 2.263. In addition, the “inhibition of immune complex binding to solid phase C1q, in words” value in the data set with C1q (Table 1) is recorded as “not significantly different from the positive control”.

Take “DCARHLGELVWCT (disulfide 2-12 (inferred))”: the “PAP immune complex binding (OD at 450 nm)” value in the data set with FcγIIa was 2.539. The “OD 405 nm” value worked out at 1.231 with human monomeric IgG; 0.109 with polyclonal IgM RF; 0.096 with whole human IgG4; 0.363 with histone; 0.193 with C1q; 0.473 with MBP. The “OD 450 nm (PAP immune complex binding)” value in the data set on FcγIII was 2.529. Further, in the data set with polyclonal IgM RF, the “inhibition of RF binding to immune complexes, in words” value was “very effective inhibition”. Moreover, in the data set on whole human IgG4 (text on Table 8), the “inhibition of Fc:Fc binding, in words” value is given as “strongest inhibition”. Also, the “OD at 450 nm (PAP binding to FcγIIb)” value with FcγIIb is on record as 1.952.

Turning to `CC(C)C[C@@H]1NC(=O)[C@H](Cc2c[nH]cn2)NC(=O)[C@H](CCCNC(=N)N)NC(=O)[C@H](C)NC(=O)[C@@H](NC(=O)[C@@H]2CCCN2C(=O)[C@@H]2CCCN2C(=O)[C@H](C)N)CSSC[C@@H](C(=O)N[C@H](C(=O)O)[C@@H](C)O)NC(=O)[C@H](Cc2c[nH]c3ccccc23)NC(=O)[C@H](C(C)C)NC(=O)[C@H](CC(C)C)NC(=O)[C@H](CCC(=O)O)NC(=O)CNC1=O` (HELM PEPTIDE1{A.P.P.C.A.R.H.L.G.E.L.V.W.C.T}$PEPTIDE1,PEPTIDE1,4:R3-14:R3$$$V2.0), in data set [1] (mouse, in vivo, sc), the “adverse reactions at injection sites” value was “no adverse reactions were observed”.

Take “RCARHLGELVWCT (disulfide 2-12 (inferred))”: the “PAP immune complex binding (OD at 450 nm)” value in the data set with FcγIIa is 3.398. For the same molecule, the “OD 405 nm” value is recorded as 1.314 in the data set with human monomeric IgG; 0.152 in the data set on polyclonal IgM RF; 0.191 in the data set with whole human IgG4; 0.359 with histone; 0.247 in the data set on C1q; 0.569 in the data set on MBP. In addition, in the data set with FcγIII, the “OD 450 nm (PAP immune complex binding)” value is 3.502. The “OD at 450 nm (PAP binding to FcγIIb)” value in the data set with FcγIIb was found to be 3.284.

As for “PCARHLGELVWCT (disulfide 2-12 (inferred))”, the “PAP immune complex binding (OD at 450 nm)” value in the data set with FcγIIa worked out at 1.149. The “OD 405 nm” value in the data set on human monomeric IgG worked out at 1.323; in the data set on polyclonal IgM RF, 0.106; in the data set on whole human IgG4 it was 0.129; in the data set on histone, 0.444; with C1q, 0.205; with MBP, 0.489. Moreover, in the data set with FcγIII, the “OD 450 nm (PAP immune complex binding)” value came to 1.602. For the same molecule, the “inhibition of RF binding to immune complexes, in words” value in the data set on polyclonal IgM RF is “very effective inhibition”. In the data set on FcγIIb, the “OD at 450 nm (PAP binding to FcγIIb)” value was found to be 1.211.
